Test results published in PubChem BioAssay AID330 (DTP/NCI, 2004).
Inconclusive results and toxic doses are left out. How the source made its calls: active means survival T/C of 150% or more; inactive means T/C below 125% in these data.

Tested on: P388 leukemia ip, CD2F1 mice, survival T/C
Assay: NCI In Vivo Anticancer Drug Screen. Data for tumor model P388 Leukemia (intraperitoneal) in CD2F1 (CDF1) mice
Conditions: endpoint: median survival time, higher = longer survival
Method in brief: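 Mice carrying the transplanted tumor received test compound or vehicle. Survival was recorded in each group, and the value is the treated-group measurement divided by that of the vehicle-treated control group.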

[1] = dose: 100.0 mg/kg/injection, schedule: Q01DX001 (ip), vehicle: saline with Tween-80
[2] = dose: 200.0 mg/kg/injection, schedule: Q01DX001 (ip), vehicle: saline with Tween-80

Measured: T/C

CCOC(=O)CC1Cc2ccc3ccc(O)cc3c2C1=O (configuration not stated)
inactive: dose: 12.5 mg/kg/injection, schedule: Q01DX009 (ip), vehicle: distilled water + Tween-80 94 % of control | dose: 25.0 mg/kg/injection, schedule: Q01DX009 (ip), vehicle: distilled water + Tween-80 95 % of control | dose: 50.0 mg/kg/injection, schedule: Q01DX009 (ip), vehicle: distilled water + Tween-80 92 % of control | dose: 100.0 mg/kg/injection, schedule: Q01DX009 (ip), vehicle: distilled water + Tween-80 86 % of control | dose: 200.0 mg/kg/injection, schedule: Q01DX009 (ip), vehicle: distilled water + Tween-80 92 % of control

CC(=O)OC1CC2CCC1(CC(=O)c1ccccc1)C2(C)C (configuration not stated)
inactive: dose: 50.0 mg/kg/injection, schedule: Q01DX009 (ip), vehicle: saline with Tween-80 96 % of control | dose: 100.0 mg/kg/injection, schedule: Q01DX009 (ip), vehicle: saline with Tween-80 92 % of control | dose: 200.0 mg/kg/injection, schedule: Q01DX009 (ip), vehicle: saline with Tween-80 100 % of control

O=C1CCC(N(CC#CCN(C2=NC(=O)CC2)c2ccccc2)c2ccccc2)=N1
inactive: dose: 60.0 mg/kg/injection, schedule: Q01DX005 (ip), vehicle: Klucel (hydroxypropylcellulose) (HPC) 103 % of control | dose: 120.0 mg/kg/injection, schedule: Q01DX005 (ip), vehicle: Klucel (hydroxypropylcellulose) (HPC) 100 % of control | dose: 240.0 mg/kg/injection, schedule: Q01DX005 (ip), vehicle: Klucel (hydroxypropylcellulose) (HPC) 97 % of control

CCOC(=O)/C=C(\C)Nc1ccccc1N
inactive: [1] 97 % of control | [2] 93 % of control

NC(=O)C1(N(CCO)CCO)CCCC1
inactive: dose: 50.0 mg/kg/injection, schedule: Q01DX005 (ip), vehicle: saline 104 % of control | dose: 100.0 mg/kg/injection, schedule: Q01DX005 (ip), vehicle: saline 98 % of control | dose: 200.0 mg/kg/injection, schedule: Q01DX005 (ip), vehicle: saline 105 % of control

Clc1ccc(C(c2ccccc2Cl)C(Cl)Cl)cc1 (configuration not stated)
inactive: dose: 8.0 mg/kg/injection, schedule: Q03HX024 (ip), vehicle: saline 105 % of control | dose: 16.0 mg/kg/injection, schedule: Q03HX008 (ip), vehicle: saline 100 % of control | dose: 16.0 mg/kg/injection, schedule: Q03HX016 (ip), vehicle: saline 100 % of control | dose: 16.0 mg/kg/injection, schedule: Q03HX024 (ip), vehicle: saline 100 % of control | dose: 32.0 mg/kg/injection, schedule: Q03HX008 (ip), vehicle: saline 100 % of control | dose: 32.0 mg/kg/injection, schedule: Q03HX016 (ip), vehicle: saline 100 % of control | dose: 32.0 mg/kg/injection, schedule: Q03HX024 (ip), vehicle: saline 100 % of control | dose: 64.0 mg/kg/injection, schedule: Q01DX009 (ip), vehicle: saline 90 % of control | dose: 64.0 mg/kg/injection, schedule: Q03HX008 (ip), vehicle: saline 100 % of control | dose: 64.0 mg/kg/injection, schedule: Q03HX016 (ip), vehicle: saline 115 % of control | dose: 64.0 mg/kg/injection, schedule: Q03HX024 (ip), vehicle: saline 110 % of control | dose: 64.0 mg/kg/injection, schedule: Q04DX003 (ip), vehicle: saline 104 % of control | dose: 128.0 mg/kg/injection, schedule: Q01DX001 (ip), vehicle: saline 109 % of control | dose: 128.0 mg/kg/injection, schedule: Q01DX009 (ip), vehicle: saline 90 % of control | dose: 128.0 mg/kg/injection, schedule: Q03HX008 (ip), vehicle: saline 100 % of control | dose: 128.0 mg/kg/injection, schedule: Q03HX016 (ip), vehicle: saline 110 % of control | dose: 128.0 mg/kg/injection, schedule: Q03HX024 (ip), vehicle: saline 100 % of control | dose: 128.0 mg/kg/injection, schedule: Q04DX003 (ip), vehicle: saline 100 % of control | dose: 128.0 mg/kg/injection, schedule: Q08DX002 (ip), vehicle: saline 100 % of control | dose: 256.0 mg/kg/injection, schedule: Q01DX001 (ip), vehicle: saline 100 % of control | dose: 256.0 mg/kg/injection, schedule: Q01DX001 (oral), vehicle: saline 104 % of control | dose: 256.0 mg/kg/injection, schedule: Q01DX009 (ip), vehicle: saline 95 % of control | dose: 256.0 mg/kg/injection, schedule: Q01DX009 (oral), vehicle: saline 104 % of control | dose: 256.0 mg/kg/injection, schedule: Q04DX003 (ip), vehicle: saline 100 % of control | dose: 256.0 mg/kg/injection, schedule: Q04DX003 (oral), vehicle: saline 100 % of control | dose: 256.0 mg/kg/injection, schedule: Q08DX002 (ip), vehicle: saline 90 % of control | dose: 512.0 mg/kg/injection, schedule: Q01DX001 (ip), vehicle: saline 109 % of control | dose: 512.0 mg/kg/injection, schedule: Q01DX001 (oral), vehicle: saline 100 % of control | dose: 512.0 mg/kg/injection, schedule: Q01DX009 (ip), vehicle: saline 86 % of control | dose: 512.0 mg/kg/injection, schedule: Q01DX009 (oral), vehicle: saline 109 % of control | dose: 512.0 mg/kg/injection, schedule: Q04DX003 (ip), vehicle: saline 90 % of control | dose: 512.0 mg/kg/injection, schedule: Q04DX003 (oral), vehicle: saline 100 % of control | dose: 512.0 mg/kg/injection, schedule: Q08DX002 (ip), vehicle: saline 100 % of control | dose: 1024.0 mg/kg/injection, schedule: Q01DX001 (ip), vehicle: saline 100 % of control | dose: 1024.0 mg/kg/injection, schedule: Q01DX001 (oral), vehicle: saline 100 % of control | dose: 1024.0 mg/kg/injection, schedule: Q01DX009 (oral), vehicle: saline 100 % of control | dose: 1024.0 mg/kg/injection, schedule: Q04DX003 (ip), vehicle: saline 90 % of control | dose: 1024.0 mg/kg/injection, schedule: Q04DX003 (oral), vehicle: saline 100 % of control | dose: 1024.0 mg/kg/injection, schedule: Q08DX002 (ip), vehicle: saline 104 % of control | dose: 2048.0 mg/kg/injection, schedule: Q01DX001 (oral), vehicle: saline 109 % of control | dose: 2048.0 mg/kg/injection, schedule: Q01DX009 (oral), vehicle: saline 100 % of control | dose: 2048.0 mg/kg/injection, schedule: Q04DX003 (oral), vehicle: saline 100 % of control

CC(C)C1SCCS1
inactive: dose: 50.0 mg/kg/injection, schedule: Q01DX001 (ip), vehicle: saline with Tween-80 102 % of control | [1] 106 % of control | [2] 99 % of control

S=C([S-])N[N-]c1ccccc1.S=C([S-])N[N-]c1ccccc1.[Ni]
inactive: dose: 100.0 mg/kg/injection, schedule: Q04DX003 (ip), vehicle: saline with Tween-80 97 % of control | dose: 200.0 mg/kg/injection, schedule: Q04DX003 (ip), vehicle: saline with Tween-80 100 % of control | dose: 400.0 mg/kg/injection, schedule: Q04DX003 (ip), vehicle: saline with Tween-80 100 % of control

COc1ccc(-c2cn(-c3ccccc3)c3ncnc(N)c23)cc1
inactive: dose: 60.0 mg/kg/injection, schedule: Q01DX005 (ip), vehicle: saline with Tween-80 102 % of control | dose: 120.0 mg/kg/injection, schedule: Q01DX005 (ip), vehicle: saline with Tween-80 103 % of control | dose: 240.0 mg/kg/injection, schedule: Q01DX005 (ip), vehicle: saline with Tween-80 103 % of control
